For orientation: melting point means the temperature, or range, at which the solid turns liquid.

`O=C(COc1ccccc1O)Nc1cc(Cl)ccc1O` [Compound 1, N-(5-Chloro-2-hydroxyphenyl)-2-(2-hydroxyphenoxy)acetamide] showed a melting point of 203 to 205 °C.
As for `CCOCCC(=O)Nc1cc(Cl)ccc1O` [Compound 2, N-(5-Choro-2-hydroxyphenyl)-3-ethoxypropanamide], the figure is 154 to 156 °C.

For the origin of these results see US7138546B2, “Compounds and compositions for delivering active agents” (Emisphere Technologies, Inc., priority 2000, dated 2006).
